According to the supplement of paper PMC12317010:

Experiment: collision cross section in nitrogen (drift tube, single-field); higher = larger gas-phase ion size
[1] = ion type: [M+H], ion source: APCI, ion mode: Positive
[2] = ion type: [M+H], ion source: ESI, ion mode: Positive
[3] = ion type: [M+Na], ion source: ESI, ion mode: Positive
[4] = ion type: [M-H], ion source: ESI, ion mode: Negative
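Also: chemical standards at 10 µM analysed by drift tube IMS-QTOF MS in about 3.95 torr nitrogen, mean of duplicate injections differing ≤1%, mass error below 10 ppm.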

CC[C@H]1OC(=O)[C@H](C)[C@@H](O[C@H]2C[C@@](C)(OC)[C@@H](O)[C@H](C)O2)[C@H](C)[C@@H](O[C@@H]2O[C@H](C)C[C@H](N(C)C)[C@H]2O)[C@](C)(O)C[C@@H](C)C(=O)[C@H](C)[C@@H](O)[C@]1(C)O [Erythromycin]
collision cross section in nitrogen [1]: 258.5 Å² | collision cross section in nitrogen [2]: 257.1 Å² | collision cross section in nitrogen [3]: 262.9 Å²

C[C@]12CC[C@@H]3c4ccc(O)cc4CC[C@H]3[C@@H]1CC[C@@H]2OC(=O)CCC1CCCC1 [Estradiol cypionate]
collision cross section in nitrogen [4]: 220.4 Å²

C[C@]12CC[C@@H]3c4ccc(O)cc4CC[C@H]3[C@@H]1C[C@@H](O)[C@@H]2O [Estriol]
collision cross section in nitrogen [4]: 178.1 Å²

CCC1COC(Cn2cncn2)(c2ccc(Cl)cc2Cl)O1 (stereo not drawn) [Etaconazole]
collision cross section in nitrogen [1]: 175.4 Å² | collision cross section in nitrogen [2]: 174.1 Å² | collision cross section in nitrogen [3]: 189.3 Å²

CCOc1nc(NC)nc(NC(=O)NS(=O)(=O)c2ccccc2C(=O)OC)n1 [Ethametsulfuron-methyl]
collision cross section in nitrogen [2]: 197.6 Å² | collision cross section in nitrogen [4]: 196 Å²

CCSCc1ccccc1OC(=O)NC [Ethiofencarb]
collision cross section in nitrogen [3]: 153.7 Å²

CCOP(=S)(OCC)SCSP(=S)(OCC)OCC [Ethion]
collision cross section in nitrogen [3]: 182.3 Å²

CCc1cc(C(N)=S)ccn1 [Ethionamide]
collision cross section in nitrogen [1]: 137.5 Å² | collision cross section in nitrogen [4]: 135.2 Å²

CCCCc1c(C)nc(NCC)nc1O [Ethirimol]
collision cross section in nitrogen [1]: 152.1 Å² | collision cross section in nitrogen [2]: 152 Å² | collision cross section in nitrogen [3]: 167.3 Å² | collision cross section in nitrogen [4]: 155.2 Å²

C#C[C@]1(O)CC[C@H]2[C@@H]3CCC4=CC(=O)CC[C@]4(C)[C@H]3CC[C@@]21C [Ethisterone]
collision cross section in nitrogen [1]: 180.2 Å² | collision cross section in nitrogen [3]: 204.6 Å²

CCCSP(=O)(OCC)SCCC [Ethoprop]
collision cross section in nitrogen [1]: 151.3 Å² | collision cross section in nitrogen [2]: 151.5 Å² | collision cross section in nitrogen [3]: 169.5 Å²

CCOc1ccc2c(c1)C(C)=CC(C)(C)N2 [Ethoxyquin]
collision cross section in nitrogen [1]: 153.1 Å² | collision cross section in nitrogen [2]: 153.2 Å²

CCOC(=O)c1sc(N)nc1C(F)(F)F [Ethyl 2-amino-4-(trifluoromethyl)-1,3-thiazole-5-carboxylate]
collision cross section in nitrogen [1]: 155.3 Å² | collision cross section in nitrogen [2]: 146.4 Å² | collision cross section in nitrogen [4]: 140.9 Å²

CCOC(=O)C(C#N)=C(c1ccccc1)c1ccccc1 [Ethyl 2-cyano-3,3-diphenylacrylate]
collision cross section in nitrogen [3]: 180.6 Å²

CCCCN(CCC(=O)OCC)C(C)=O [Ethyl 3-(N-butylacetamido)propionate]
collision cross section in nitrogen [1]: 149.3 Å² | collision cross section in nitrogen [3]: 162 Å²

CCOC(=O)c1cccc(O)c1 [Ethyl 3-hydroxybenzoate]
collision cross section in nitrogen [4]: 137.7 Å²

CCOC(=O)C1=NOC(c2ccccc2)(c2ccccc2)C1 [Ethyl 5,5-diphenyl-2-isoxazoline-3-carboxylate]
collision cross section in nitrogen [2]: 169.5 Å² | collision cross section in nitrogen [3]: 187.8 Å²

CCOC(=O)C1=NN(c2ccccc2)C(=O)C1 [Ethyl 5-oxo-1-phenyl-4,5-dihydro-1H-pyrazole-3-carboxylate]
collision cross section in nitrogen [1]: 154.1 Å² | collision cross section in nitrogen [2]: 154.5 Å² | collision cross section in nitrogen [3]: 164.9 Å² | collision cross section in nitrogen [4]: 155.5 Å²

CCOC(=O)NCCC[Si](OCC)(OCC)OCC [Ethyl [3-(triethoxysilyl)propyl]carbamate]
collision cross section in nitrogen [3]: 171.4 Å²

CCOC(=O)CC(=O)c1ccccc1 [Ethyl benzoylacetate]
collision cross section in nitrogen [3]: 155.9 Å²

CCCCCCCCCC(=O)OCC [Ethyl decanoate]
collision cross section in nitrogen [4]: 154.6 Å²

CCN(CCO)CCO [Ethyl diethanolamine]
collision cross section in nitrogen [1]: 125.6 Å² | collision cross section in nitrogen [2]: 125.8 Å²

CCCCCCCCCCCC(=O)OCC [Ethyl dodecanoate]
collision cross section in nitrogen [4]: 162.3 Å²

CCCCCCCCCCCCCCCC(=O)OCC [Ethyl hexadecanoate]
collision cross section in nitrogen [4]: 177.9 Å²

CCCCCCCC(=O)OCC [Ethyl octanoate]
collision cross section in nitrogen [4]: 149.5 Å²

CCCCCCCCCCCCCC(=O)OCC [Ethyl tetradecanoate]
collision cross section in nitrogen [4]: 169.8 Å²

CS(=O)(=O)OCCOS(C)(=O)=O [Ethylene dimethanesulfonate]
collision cross section in nitrogen [3]: 144.8 Å²

C(COCC1CO1)OCC1CO1 (stereo not drawn) [Ethylene glycol diglycidyl ether]
collision cross section in nitrogen [3]: 135.8 Å²

O=C(OCCOCCOCCOC(=O)c1ccccc1)c1ccccc1 [Ethylenebis(oxyethylene) dibenzoate]
collision cross section in nitrogen [3]: 189.7 Å²

CCOC(=O)c1ccc(O)cc1 [Ethylparaben]
collision cross section in nitrogen [4]: 136.7 Å²

CCC(C(=O)NC(N)=O)c1ccccc1 (stereo not drawn) [Ethylphenylacetylurea]
collision cross section in nitrogen [4]: 151 Å²

CCOc1ccc(C(C)(C)COCc2cccc(Oc3ccccc3)c2)cc1 [Etofenprox]
collision cross section in nitrogen [3]: 191 Å²

COc1cc([C@@H]2c3cc4c(cc3[C@@H](O[C@@H]3O[C@@H]5CO[C@@H](C)O[C@H]5[C@H](O)[C@H]3O)[C@H]3COC(=O)[C@H]23)OCO4)cc(OC)c1O [Etoposide]
collision cross section in nitrogen [3]: 249.8 Å² | collision cross section in nitrogen [4]: 239.5 Å²

CCOc1cc(C(C)(C)C)ccc1C1COC(c2c(F)cccc2F)=N1 (stereo not drawn) [Etoxazole]
collision cross section in nitrogen [1]: 186.3 Å² | collision cross section in nitrogen [2]: 186.5 Å² | collision cross section in nitrogen [3]: 196 Å² | collision cross section in nitrogen (ion type: [M+], ion source: APCI, ion mode: Positive): 186.5 Å²

C=CCc1ccc(OC(=O)Cc2ccccc2)c(OC)c1 [Eugenyl phenylacetate]
collision cross section in nitrogen [3]: 175.7 Å²

CCN(Cc1cccc(S(=O)(=O)O)c1)c1ccc(C(=C2C=CC(=[N+](CC)Cc3cccc(S(=O)(=O)O)c3)C=C2)c2ccccc2S(=O)(=O)[O-])cc1 [FD&C Blue No. 1]
collision cross section in nitrogen [2]: 253.6 Å² | collision cross section in nitrogen [4]: 257.6 Å²

CCN(Cc1cccc(S(=O)(=O)O)c1)c1ccc(C(=C2C=CC(=[N+](CC)Cc3cccc(S(=O)(=O)[O-])c3)C=C2)c2ccccc2)cc1 [FD&C Green No. 1]
collision cross section in nitrogen [2]: 254.3 Å² | collision cross section in nitrogen [3]: 261.8 Å² | collision cross section in nitrogen [4]: 261.9 Å²

CCN(Cc1cccc(S(=O)(=O)O)c1)c1ccc(C(=C2C=CC(=[N+](CC)Cc3cccc(S(=O)(=O)O)c3)C=C2)c2ccc(O)cc2S(=O)(=O)[O-])cc1 [FD&C Green No. 3]
collision cross section in nitrogen [2]: 259 Å² | collision cross section in nitrogen [3]: 260.8 Å² | collision cross section in nitrogen [4]: 260.3 Å²
